Tests used:
DCC = biological target: T1, DCC (Homo sapiens, UniProt P43146); assay: Immune precipitation of DCC with HA-tagged mPR, Western blot with anti-DCC AF5; format: binding; details: MCF7 cells, 24 hours after transfection, anti-HA immunoprecipitation
T1 construct: endogenous in cells; host or cells: MCF7 human breast cancer cells, transfected only with mPR-3HA expression plasmids
Protocol: Therefore it is most reasonable to assume that mPR will be detectable in a complex with DCC. […] Aliquots of 2×10^6 MCF7 cells were transfected as described below with each of the mPR expression vectors.
After 24 hours the mPR-3HA proteins were affinity purified with an anti-HA anti-body described above. The AF5 anti DCC human monoclonal antibody (Merck Biosciences OP45 Anti-DCC Mouse mAb AF5) was used to detect the presence of DCC by Western Blot. Normalized amounts of the precleared incubation reaction, the final supernatant after removal of the immuno-precipitate, and of the immuno-precipitated pellet were loaded to SDS-PAGE gels, blotted to membranes, and Western Blotted with the AF5 anti-DCC antibody. […] The size of the band was slightly higher than the predicted 158 kDa for DCC, possibly due to post-translational modification of the protein. An approximately 100 kDa band also reacted with the anti-DCC monoclonal antibody in Western Blot, which may represent a proteolytic fragment of DCC. […] We are not naively claiming a phosphorylated form of mPR interacts with DCC, which is not shown by our data. […]
MCF-7 breast cancer cells were transfected by Lipofection with 5 μg of pcDNA3.1 containing HA-tagged mPR-wt, tagged mutant S56A, S180A, S56A/S180A, or tagged mutant S56A/C128S/[…]. […] For IP the cells were trypsinized, counted and cell pellets were snap frozen and stored at −80° C. […]

[1] = system: MCF-7 breast cancer cells; assay: Stable transfection of MCF-7 cells, colony formation / cell count after 2 weeks of selection; format: cell-based, human; details: MCF-7 cells transfected with pcDNA3.1 HA-tagged mPR plasmid, 2 weeks hygromycin B selection
Protocol: Colonies were grown from all transfected cell lines. […] This anti-proliferative effect of both of these mutants was not observed using transiently transfected cells used for immunohistochemistry in cytospins because these were assayed shortly after transfection.
Therefore, treatments that would promote the formation of the hypophosphorylated dimeric form in tumors would be highly desirable. […] Therefore the interaction of an SH3-domain-containing protein that interacts with the SH3-domain target sequence that contains serine 56 is necessary to manifest the antiproliferative phenotype associated with non-phosphorylated serine 180. The interaction of this unknown protein is inhibited by phosphorylation of serine 56, thereby preventing the antiproliferative phenotype and enhancing proliferative ability. Conversely, when an SH2-domain-containing protein can bind to the phosphorylated tyrosine 179 adjacent to non-phosphorylated serine 180 then the antiproliferative effect is antagonized, and cells can proliferate. […]
MCF-7 cells stably transfected with mPR and mutants, respectively, were established. […] To that aim colonies were trypsinized, counted and diluted in two-fold dilutions.

[2] = system: breast cancer exhibiting a positive ER status; details: patients with breast cancer of positive ER status; cited from earlier work

T1 sequence (P43146 26-1447): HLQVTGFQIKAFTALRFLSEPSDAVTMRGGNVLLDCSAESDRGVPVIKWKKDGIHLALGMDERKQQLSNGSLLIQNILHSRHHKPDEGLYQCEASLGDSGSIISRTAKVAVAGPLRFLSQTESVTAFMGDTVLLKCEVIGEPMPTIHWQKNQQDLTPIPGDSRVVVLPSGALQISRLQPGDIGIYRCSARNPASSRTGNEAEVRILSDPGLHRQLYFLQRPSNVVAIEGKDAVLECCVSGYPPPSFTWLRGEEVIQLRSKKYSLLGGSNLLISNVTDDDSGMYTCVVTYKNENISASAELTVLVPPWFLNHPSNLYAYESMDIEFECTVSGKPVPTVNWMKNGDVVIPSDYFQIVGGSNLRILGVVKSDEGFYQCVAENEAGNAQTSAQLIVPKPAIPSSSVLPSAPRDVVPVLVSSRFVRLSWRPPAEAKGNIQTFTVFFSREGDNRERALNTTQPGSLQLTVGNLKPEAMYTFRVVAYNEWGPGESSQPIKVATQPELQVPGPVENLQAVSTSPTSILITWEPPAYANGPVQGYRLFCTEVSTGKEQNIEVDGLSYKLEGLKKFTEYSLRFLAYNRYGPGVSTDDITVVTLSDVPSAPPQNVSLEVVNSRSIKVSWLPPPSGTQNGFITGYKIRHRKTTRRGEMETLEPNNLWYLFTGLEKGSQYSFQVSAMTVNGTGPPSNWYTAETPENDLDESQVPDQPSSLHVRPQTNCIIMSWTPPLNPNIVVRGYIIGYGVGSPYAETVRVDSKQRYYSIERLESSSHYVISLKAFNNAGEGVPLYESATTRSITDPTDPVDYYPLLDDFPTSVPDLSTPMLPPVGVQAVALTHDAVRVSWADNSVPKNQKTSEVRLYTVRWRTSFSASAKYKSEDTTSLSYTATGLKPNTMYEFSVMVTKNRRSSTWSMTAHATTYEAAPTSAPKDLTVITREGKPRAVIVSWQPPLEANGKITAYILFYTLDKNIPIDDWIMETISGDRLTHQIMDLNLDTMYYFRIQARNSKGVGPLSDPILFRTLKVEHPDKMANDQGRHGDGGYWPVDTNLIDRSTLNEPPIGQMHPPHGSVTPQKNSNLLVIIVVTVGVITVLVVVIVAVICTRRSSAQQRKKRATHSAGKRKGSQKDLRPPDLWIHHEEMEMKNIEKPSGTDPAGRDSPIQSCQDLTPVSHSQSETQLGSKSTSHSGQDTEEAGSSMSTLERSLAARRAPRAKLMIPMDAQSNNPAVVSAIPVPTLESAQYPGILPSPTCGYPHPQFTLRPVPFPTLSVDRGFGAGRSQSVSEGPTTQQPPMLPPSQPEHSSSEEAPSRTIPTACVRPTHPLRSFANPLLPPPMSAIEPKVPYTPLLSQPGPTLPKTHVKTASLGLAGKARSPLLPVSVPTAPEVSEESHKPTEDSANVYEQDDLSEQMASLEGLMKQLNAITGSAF

Molecule	number of colonies / ability to proliferate [1]	other results
wild-type mPR: HA-tagged wild-type membrane associated progesterone receptor component 1 expressed from pcDNA3_MPR-3HA	–	DCC band in immune precipitation pellet (DCC): A high molecular weight DCC band was observed
S56A/C128S/S180A: HA-tagged mPR triple mutant: serine 56 and 180 to alanine, cysteine 128 to serine	able to proliferate	–
S56A/S180A: HA-tagged mPR (PGRMC1) with serine 56 and serine 180 mutated to alanine, expressed from plasmid pcDNA3.1	drastically reduced to effectively background levels	–
CC/C(=C(\c1ccccc1)c1ccc(OCCN(C)C)cc1)c1ccccc1 [tamoxifen]	–	fraction of cases in which effective [2]: approximately 50%

Reference: US20090061461A1, “Phosphorylated or Non-Phosphorylated MPR as Diagnostic Marker or Therapeutic Target” (priority 2005, published 2009)
